# Assay results taken from the supplement of paper PMC10307832.
# Compound: CC(C)CCN1c2nc(Nc3cc(F)c(O)c(F)c3)ncc2N(C)C(=O)C1C [BI-D1870] + COc1cc2c(Oc3ccc(NC(=O)C4(C(=O)Nc5ccc(F)cc5)CC4)cc3F)ccnc2cc1OCCCN1CCOCC1 [Foretinib] (partner 0.25 µM)
# Experiment: relative viability (nuclei count vs DMSO), 5 days (fraction); higher = more cells survive
# Details: first compound 1.265 µM
# Outline: (§1)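 Each reported value is a median over duplicate plates. It expresses relative viability: treated-well nuclei count divided by vehicle-well nuclei count. Lung cancer cell lines in 1536-well plates were dosed by pin tool a day after seeding, alone with one drug or with a fixed anchor-drug dose plus five library-drug doses (not always all listed) in √10 steps, and nuclei were counted after 5 days.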
row,Cell Line,relative viability
1,NCI-H2228,0.821
2,NCI-H2023,0.851
3,NCI-H1563,1.04

# Same assay, conditions: first compound 4 µM
row,Cell Line,relative viability
1,NCI-H2342,1.23
2,NCI-H1623,0.794
3,NCI-H727,0.739
4,NCI-H1650,1.27
5,EBC-1,0.0927
6,NCI-H1703,0.385
7,NCI-H1993,0.842
8,SW 1573,0.881
9,NCI-H838,1.15
10,LCLC-103H,0.566
11,NCI-H520,0.818
12,NCI-H2126,1.06
13,EMC-BAC-2,1.02
14,NCI-H2085,0.754
15,Calu-6,0.561
16,HCC-366,0.943

row,Cell Line,relative viability
1,NCI-H1666,0.963
2,NCI-H596,0.958
3,SK-MES-1,0.769
4,COR-L23,0.905
5,COR-L 105,1.12
6,IA-LM,0.977
7,ChaGo-K-1,0.956
8,A549,0.747
9,SW 900,1.22
10,NCI-H2009,1
11,NCI-H661,0.969
12,SK-LU-1,0.525
13,NCI-H1299,0.952
14,NCI-H2228,0.647
15,NCI-H2023,0.945
16,NCI-H1563,0.967

# Compound: CC(C)CCN1c2nc(Nc3cc(F)c(O)c(F)c3)ncc2N(C)C(=O)C1C [BI-D1870] + NC(=O)Nc1cc(-c2cccc(F)c2)sc1C(=O)N[C@H]1CCCNC1 [AZD7762] (partner 0.2 µM)
# Experiment: as above
# Details: first compound 0.04 µM
# Outline: as §1
row,Cell Line,relative viability
1,NCI-H2342,0.493
2,NCI-H727,0.575
3,NCI-H1703,0.143
4,NCI-H1993,0.878
5,NCI-H838,0.994
6,LCLC-103H,0.768
7,NCI-H2126,1.02
8,EMC-BAC-2,1.21
9,NCI-H2085,1.06
10,HCC-366,0.389
11,NCI-H1666,0.934
12,NCI-H596,1.23
13,NCI-H1648,0.67
14,ChaGo-K-1,0.956
15,HCC-44,1.02
16,NCI-H522,0.84
17,SW 900,0.81
18,NCI-H1792,0.728

# Same assay, conditions: first compound 0.1265 µM
row,Cell Line,relative viability
1,NCI-H2342,0.609
2,NCI-H727,0.793
3,NCI-H1993,0.682
4,NCI-H838,0.909
5,LCLC-103H,0.655
6,NCI-H2126,1.02
7,EMC-BAC-2,1.11
8,NCI-H2085,0.972
9,HCC-366,0.273
10,NCI-H1666,0.868
11,NCI-H596,0.9
12,NCI-H1648,0.677
13,ChaGo-K-1,0.81
14,HCC-44,0.988
15,NCI-H522,0.845
16,SW 900,0.589
17,NCI-H1792,0.599

# Same assay, conditions: first compound 0.4 µM
row,Cell Line,relative viability
1,NCI-H2342,0.392
2,NCI-H727,0.569
3,NCI-H1703,0.122
4,NCI-H1993,1.03
5,NCI-H838,0.893
6,LCLC-103H,0.804
7,NCI-H2126,0.95
8,EMC-BAC-2,1.05
9,NCI-H2085,0.927
10,HCC-366,0.202
11,NCI-H1666,0.778
12,NCI-H596,1.04
13,ChaGo-K-1,0.89
14,HCC-44,1
15,NCI-H522,0.851
16,SW 900,0.526
17,NCI-H1792,0.72

# Same assay, conditions: first compound 1.265 µM
row,Cell Line,relative viability
1,NCI-H2342,0.803
2,NCI-H727,0.838
3,NCI-H1703,0.142
4,NCI-H1993,0.988
5,NCI-H838,1.04
6,LCLC-103H,0.871
7,NCI-H2126,1.05
8,EMC-BAC-2,1.38
9,NCI-H2085,0.97
10,HCC-366,0.662
11,NCI-H1666,0.995
12,NCI-H596,1.16
13,NCI-H1648,0.646
14,ChaGo-K-1,0.911
15,HCC-44,1.04
16,NCI-H522,0.935
17,SW 900,0.661
18,NCI-H1792,0.72

# Same assay, conditions: first compound 4 µM
row,Cell Line,relative viability
1,NCI-H2342,0.667
2,NCI-H727,0.515
3,NCI-H1703,0.116
4,NCI-H1993,0.471
5,NCI-H838,0.947
6,LCLC-103H,0.741
7,NCI-H2126,0.991
8,EMC-BAC-2,1.02
9,NCI-H2085,0.771
10,HCC-366,0.477
11,NCI-H1666,0.812
12,NCI-H596,0.933
13,NCI-H1648,0.57
14,ChaGo-K-1,0.834
15,HCC-44,1.04
16,NCI-H522,0.911
17,SW 900,0.594
18,NCI-H1792,0.527

# Compound: O=c1ncccn1[C@@H]1O[C@H](CO)[C@@H](O)[C@H]1O [Zebularine] + Cc1nc(NC(=O)N2CCC[C@H]2C(N)=O)sc1-c1ccnc(C(C)(C)C(F)(F)F)c1 [Alpelisib] (partner 2 µM)
# Experiment: as above
# Details: first compound 1 µM
# Outline: as §1
row,Cell Line,relative viability
1,EBC-1,0.899
2,NCI-H1703,0.311
3,NCI-H1993,0.666
4,SW 1573,0.728
5,NCI-H838,1.04
6,LCLC-103H,1.08
7,NCI-H520,1.1
8,NCI-H2126,0.783
9,EMC-BAC-2,0.799
